The numbers were not newly measured in article PMC6838683, “Discovery of Human Signaling Systems: Pairing Peptides to G Protein-Coupled Receptors” (Cell, 2019), which cites them from elsewhere.

This data set has as its system human GPCRs. Further details: method as in Guide to Pharmacology database. Conditions: max reported value, ref Guide to Pharmacology database, cited from earlier work. An excerpt:
Supplement mmc1.xlsx, sheet "HumanGPCRLigands" | column: pKi_value; pKd_value; pEC50_value; pIC50_value

The mark [1] stands for this setting: receptor S1PR1 (s1pr1_human, P21453).
[2] abbreviates: receptor S1PR2 (s1pr2_human, O95136).
The mark [3] stands for this setting: receptor S1PR3 (s1pr3_human, Q99500).
[4] abbreviates: receptor S1PR4 (s1pr4_human, O95977).
The mark [5] stands for this setting: receptor taar1_human (TAAR1, Q96RJ0).
The mark [6] stands for this setting: receptor gasr_human (CCKBR, P32239).
[7] abbreviates: receptor CCR2 (ccr2_human, P41597).
[8] abbreviates: receptor CCR3 (ccr3_human, P51677).
Setting [9] is: receptor CCR5 (ccr5_human, P51681).
The mark [10] stands for this setting: receptor CCR1 (ccr1_human, P32246).
Setting [11] is: receptor CCR7 (ccr7_human, P32248).
The mark [12] stands for this setting: receptor CXCR1 (cxcr1_human, P25024).
Setting [13] is: receptor CXCR2 (cxcr2_human, P25025).
The mark [14] stands for this setting: receptor CXCR3 (cxcr3_human, P49682).
Setting [15] is: receptor gnrhr_human (GNRHR, P30968).

Like-named read-outs stand apart in the source and are kept apart here. No end group written: not given here.

Turning to `CCCCCCCCCCCCC/C=C/[C@@H](O)[C@@H](N)COP(=O)(O)O` [sphingosine 1-phosphate], the pEC50_value reads like this: under setting [1], 9.4; under setting [2], 8.5; under setting [3], 9.8; under setting [4], 8.1; (receptor S1PR5 (s1pr5_human, Q9H228)) 8.9; (receptor gpr3_human (GPR3), Class A orphans) 7.7. Further, the pEC50_value runs as follows: (receptor gpr12_human (GPR12), Class A orphans) 7; (receptor gpr63_human (GPR63), Class A orphans) 6.2; (receptor p2y10_human (P2RY10), Class A orphans) 7.3. The pKd_value by setting is: under setting [1], 9.4; under setting [2], 7.7; under setting [3], 9.6. The pIC50_value under setting [4] was 7.

Turning to `CSCC[C@H](NC(=O)[C@H](CC(C)C)NC(=O)CNC(=O)[C@H](Cc1ccccc1)NC(=O)[C@H](Cc1ccccc1)NC(=O)[C@H](CCC(N)=O)NC(=O)[C@H](CCC(N)=O)NC(=O)[C@@H]1CCCN1C(=O)[C@H](CCCCN)NC(=O)[C@@H]1CCCN1C(=O)[C@@H](N)CCCN=C(N)N)C(N)=O` [substance P], the pKi_value (receptor TACR1 (nk1r_human, P25103)) is listed as 10.3; the pKi_value (receptor TACR2 (nk2r_human, P21452)) is listed as 6.9; the pKi_value (receptor TACR3 (nk3r_human, P29371)) is given as 6.

As for `O=C(O)CCC(=O)O` [succinic acid], the pEC50_value (receptor sucr1_human (SUCNR1), Succinate receptors) was 4.7.

Turning to `NCCc1ccc(O)cc1` [tyramine], the pEC50_value under setting [5] is recorded as 6.7.

With `O=c1ccn([C@@H]2O[C@H](COP(=O)(O)OP(=O)(O)O)[C@@H](O)[C@H]2O)c(=O)[nH]1` [uridine diphosphate], the pEC50_value (receptor p2ry6_human (P2RY6), P2Y receptors) is on record as 6.5.

With `CC(C)[C@H](NC(=O)[C@@H]1CSSC[C@H](NC(=O)[C@H](CC(=O)O)NC(=O)[C@@H]2CCCN2C(=O)[C@@H](NC(=O)[C@@H](N)CCC(=O)O)[C@@H](C)O)C(=O)N[C@@H](Cc2ccccc2)C(=O)N[C@@H](Cc2c[nH]c3ccccc23)C(=O)N[C@@H](CCCCN)C(=O)N[C@@H](Cc2ccc(O)cc2)C(=O)N1)C(=O)O` [urotensin-II], the pKi_value (receptor UTS2R (ur2r_human, Q9UKP6)) was 8.6.

On to `NC(=O)CC[C@@H]1NC(=O)[C@H](Cc2ccccc2)NC(=O)[C@H](Cc2ccc(O)cc2)NC(=O)[C@@H](N)CSSC[C@@H](C(=O)N2CCC[C@H]2C(=O)N[C@@H](CCCN=C(N)N)C(=O)NCC(N)=O)NC(=O)[C@H](CC(N)=O)NC1=O` [vasopressin], for which the pKi_value was 9.3 (receptor AVPR1A (v1ar_human, P37288)); 9.5 (receptor AVPR1B (v1br_human, P47901)); 9.1 (receptor AVPR2 (v2r_human, P30518)); 9.3 (receptor OXTR (oxyr_human, P30559)).

On to `O=C(O)CCC(=O)C(=O)O` [α-ketoglutaric acid], for which the pEC50_value (receptor oxgr1_human (OXGR1), Oxoglutarate receptors) is 4.5.

Turning to `C[C@@H](O)CC(=O)O` [β-D-hydroxybutyric acid], the pEC50_value (receptor hcar2_human (HCAR2), Hydroxycarboxylic acid receptors) was 3.1.

`NCCC(=O)O` [β-alanine]: the pEC50_value (receptor mrgrd_human (MRGPRD), Class A orphans) was 4.8.

Take `NCCc1ccccc1` [β-phenylethylamine]: the pEC50_value under setting [5] is recorded as 7.

As for (-)-adrenaline, the pKi_value was 6.5 (receptor ada1a_human (ADRA1A, P35348)); 6.5 (receptor ada1b_human (ADRA1B, P35368)); 7.2 (receptor ada1d_human (ADRA1D, P25100)); 7.4 (receptor ada2a_human (ADRA2A, P08913)); 5.2 (receptor ada2b_human (ADRA2B, P18089)); 5.8 (receptor ada2c_human (ADRA2C, P18825)). Further, the pKi_value was 6 (receptor adrb1_human (ADRB1, P08588)); 6.2 (receptor adrb2_human (ADRB2, P07550)); 3.9 (receptor adrb3_human (ADRB3, P13945)).

Consider “Big endothelin-1 (CSCSSLMDKECVYFCHLDIIWVNTPEHVVPYGLGSPRS; not fully specified; ends and bridges not checked; UniProt P05305 53-90, looked up)”, for which the pIC50_value (receptor ednra_human (EDNRA, P25101)) is given as 8.5.

For CCK-4, the pIC50_value under setting [6] is 7.5.

As for CCK-8, the pIC50_value under setting [6] is reported as 10.

Turning to CCL2, the pIC50_value under setting [7] is given as 10.2. The pKi_value by setting is: under setting [8], 7.8; under setting [9], 7.5.

Take CCL3: the pKi_value is listed as 10.2 under setting [10] and 8.9 under setting [9].

In the case of CCL5, the pKi_value under setting [10] is 8.2, the pKi_value under setting [8] is 9.3 and the pKi_value under setting [9] is 9.7. For the setting “receptor gpr75_human (GPR75), Class A orphans”, the pEC50_value is on record as 9.6.

On to CCL7, for which the pKi_value was 8.1 under setting [10], 9.2 under setting [8] and 7.5 under setting [9]. The pIC50_value under setting [7] is given as 8.7.

CCL11: the pIC50_value under setting [7] is given as 7.7, the pIC50_value under setting [8] is 9 and the pIC50_value under setting [9] is reported as 7.7. The pKi_value under setting [8] was 10.

Take CCL13: the pIC50_value by setting is: under setting [7], 8.7; under setting [8], 10.3.

Turning to CCL19, the pIC50_value is reported as 9 under setting [11] and 7.4 (receptor CCRL2 (ccrl2_human, O00421)). Further, the pKd_value under setting [11] is reported as 10.

Regarding CCL20, under “receptor CCR6 (ccr6_human, P51684)”, the pIC50_value is listed as 8.5.

Take CCL26: the pIC50_value reads like this: under setting [7], 8.5; under setting [8], 8.9.

On to CST-17, for which the pKi_value reads like this: (receptor SSTR1 (ssr1_human, P30872)) 9.6; (receptor SSTR2 (ssr2_human, P30874)) 9.3; (receptor SSTR3 (ssr3_human, P32745)) 9.9; (receptor SSTR4 (ssr4_human, P31391)) 9.6; (receptor SSTR5 (ssr5_human, P35346)) 10.2.

CXCL1: the pKi_value by setting is: under setting [12], 6.4; under setting [13], 9.7.

In the case of CXCL2, the pIC50_value under setting [13] is on record as 9.1.

As for CXCL3, the pIC50_value under setting [13] is on record as 9.2.

Turning to CXCL5, the pIC50_value under setting [13] was 9.

Take CXCL6: under setting [12], the pKi_value was 7. Besides, the pKd_value under setting [13] is recorded as 7.

Turning to CXCL8, under setting [12], the pKd_value was 8.1 and the pKi_value is given as 9.5. Under setting [13], the pKi_value is given as 9.5.

CXCL9: under setting [14], the pKi_value is reported as 8.3.

Take CXCL10: the pKi_value under setting [14] is recorded as 9.8.

For CXCL11, under setting [14], the pKi_value is recorded as 10.5.

Turning to CXCL13, the pKd_value (receptor CXCR5 (cxcr5_human, P32302)) is 7.3.

Consider GHRH, for which the pKi_value (receptor vipr1_human (VIPR1, P32241)) is recorded as 6.2.

Turning to GnRH I, under setting [15], the pEC50_value is on record as 10, the pIC50_value is recorded as 8.6, the pKd_value is 8.5 and the pKi_value is reported as 8.4.

Take “GnRH II (QHWSHGWYPG; ends and bridges not checked; UniProt O43555 24-33, looked up)”: the pIC50_value under setting [15] is 7.9.
